Laboratory results from paper PMC10135569, “Does Enhanced Structural Maturity of hiPSC-Cardiomyocytes Better for the Detection of Drug-Induced Cardiotoxicity?” (Biomolecules, 2023).

Key:
[1] = tested on: hiPSC-CMs (iCell2 Cardiomyocytes) 2D monolayers; assay: Membrane potential (action potential) recordings with FluoVolt voltage-sensitive dye on the CellOPTIQ platform; assay type: cell-based, human; settings: for activity at 0.03 µM / activity at 0.1 µM / activity at 0.3 µM / activity at 1 µM: Homo sapiens, Cardiomyocyte, 0.5 h, 30 min, delta over DMSO 0.1%
Protocol: (§1) Cardiomyocytes (FUJIFILM Cellular Dynamics, Madison, WI, USA) were kept at −190 °C and prepared for culture as per the manufacturer’s instructions.
(§2) Standard fibronectin vs. Matrix Plus well coating: The cells were cultured using two different coatings in a humidified incubator at 37 °C with 5% CO2. First, 96-well glass-bottomed plates (MatTek, Ashland, MA) were coated with fibronectin ([…] in PBS supplemented with Ca^2+ and Mg^2+; Sigma, St. Louis, MO, USA) (defining FM). Second, CELLvo^TM Matrix Plus (StemBioSys, San Antonio, TX, USA), which were pre-coated on 96 well glass bottom plates and kept at 4 °C. On the day of plating, CELLvo^TM Matrix Plus plates were transferred to room temperature, rehydrated with phosphate buffer saline (PBS), incubated for 1 h at 37 °C, and washed 2× with PBS. Cells were introduced at a density of 50,000 cells/well to allow the formation of a confluent monolayer in each well (defined as MM). The maintenance protocols followed the manufacturer’s instructions and used the iCell^2 Cardiomyocytes Maintenance media for media changes every 2 days. Experiments were performed between days 5 and 6, as recommended by the manufacturers. Before beginning an experiment, cells were washed in serum-free media (SF media) (Fluorobrite DMEM, Gibco, Thermo Fisher Scientific, Horsham, UK).
(§3) The drug powders were dissolved in DMSO, and four stock concentrations at 1000× the final target concentration were prepared in DMSO. For the experiment, an intermediate concentration 2× the target solution was prepared in SF media. The addition of drugs to the cells was accomplished by replacing 50% of the well volume with the intermediate 2× solution. The same procedure was done for vehicle control using DMSO. The experimental number n = 8/concentration/testing compound in the FM or MM condition, and n = 36 for each positive or negative control in the FM or MM condition.
Cultures of hiPSC-CMs (5–6 days post-plating) were treated with FluoVolt dye (1:1000, Invitrogen, Cat# F10488) in SF media and incubated for 20 min at 37 °C with 5% CO2 and 80% humidity. Multi-well plates were placed in the environmentally controlled stage incubator (37 °C, 5% CO2, water-saturated air atmosphere) (Okolab Inc. Burlingame, CA) of the CellOPTIQ® platform (Clyde Biosciences Ltd., Glasgow, Scotland). The FluoVolt signal was recorded from a 0.2 mm × 0.2 mm area using a 40× (numerical aperture: NA 0.6) Excitation wavelength was 470 ± 10 nm using a light-emitting diode (LED), and emitted light was collected by two photomultipliers (PMTs) at 510–560 nm (channel 1) and 590–650 nm (channel 2), respectively. LED, PMT, and associated power supplies and amplifiers were supplied by Cairn Research Ltd. (Kent, UK) and digitized at 10 kHz and stored on a computer hard drive. In the case of FluoVolt-based action potential recordings, the short wavelength (channel 1, […]) was analyzed for action potential features.
(§4) The dye FluoVolt is loaded into the surface membrane (outer leaflet), and the dye remains within the membrane for many dots, allowing intermittent voltage measurements over the experimental period. In this study, measurements were restricted to within 30 mins of application of the drug. The measurements were made on the same area before/after drug/DMSO addition. […] Baseline spontaneous electrical activity and the associated contractility signal were recorded by capturing 10 s segments of fluorescent signal and video for 2D plates and 15 s for organoids from each well prior to compound addition. Drugs were tested at four concentrations in n = 8 independent replicates (i.e., 8 wells from a single plating) at each concentration. A vehicle control was included for each drug. A 10 s or 15 s recording was then taken 30 min after exposure to the drug or vehicle with only one concentration applied/well.

[2] = tested on: hiPSC-CMs (iCell2 Cardiomyocytes) 2D monolayers; assay: Contractility measurements using video imaging (ContractilityTool / MUSCLEMOTION); assay type: cell-based, human; settings: Homo sapiens, Cardiomyocyte, 0.5 h, 30 min, delta over DMSO 0.1%
Protocol: as §1, §2, §3
as §4, with “applied/well. Offline analysis was performed using proprietary software (CellOPTIQ®).” for “applied/well.”
Short periods (10 s or 15 s) of video were analyzed using the ContractilityTool application (developed by F.L. Burton), which is an implementation of the MUSCLEMOTION algorithm.

[3] = FM monolayer, read-out: APD30 (%DD)
[4] = FM monolayer, read-out: APD90 (%DD)
[5] = FM monolayer, read-out: CL (%DD)
[6] = FM monolayer, read-out: Trise (%DD)
[7] = MM monolayer, read-out: APD30 (%DD)
[8] = MM monolayer, read-out: APD90 (%DD)
[9] = MM monolayer, read-out: CL (%DD)
[10] = MM monolayer, read-out: Trise (%DD)
[11] = FM monolayer, read-out: CtAmp (%DD)
[12] = FM monolayer, read-out: CtD50 (%DD)
[13] = MM monolayer, read-out: CtAmp (%DD)
[14] = MM monolayer, read-out: CtD50 (%DD)

C[N+](C)(C)CCOC(N)=O [Carbachol]
activity at 0.03 µM [1, 3]: 97 ± 2.3% | activity at 0.03 µM [1, 4]: 99 ± 1.4% | activity at 0.03 µM [1, 5]: 99 ± 2.6% | activity at 0.03 µM [1, 6]: 104 ± 11.8% | activity at 0.1 µM [1, 3]: 104 ± 2.6% | activity at 0.1 µM [1, 4]: 100 ± 1.2% | activity at 0.1 µM [1, 5]: 105 ± 0.6% | activity at 0.1 µM [1, 6]: 125 ± 18.5% | activity at 0.3 µM [1, 3]: 102 ± 2.9% | activity at 0.3 µM [1, 4]: 103 ± 1% | activity at 0.3 µM [1, 5]: 109 ± 1% | activity at 0.3 µM [1, 6]: 118 ± 17.5% | activity at 1 µM [1, 3]: 103 ± 1.6% | activity at 1 µM [1, 4]: 110 ± 1.1% | activity at 1 µM [1, 5]: 114 ± 0.5% | activity at 1 µM [1, 6]: 95 ± 17.7% | activity at 0.03 µM [1, 7]: 105 ± 2.2% | activity at 0.03 µM [1, 8]: 103 ± 1.8% | activity at 0.03 µM [1, 9]: 106 ± 0.3% | activity at 0.03 µM [1, 10]: 186 ± 29% | activity at 0.1 µM [1, 7]: 106 ± 2.4% | activity at 0.1 µM [1, 8]: 107 ± 1.1% | activity at 0.1 µM [1, 9]: 115 ± 0.6% | activity at 0.1 µM [1, 10]: 144 ± 20.7% | activity at 0.3 µM [1, 7]: 111 ± 1.9% | activity at 0.3 µM [1, 8]: 111 ± 1.1% | activity at 0.3 µM [1, 9]: 122 ± 0.9% | activity at 0.3 µM [1, 10]: 143 ± 22.1% | activity at 1 µM [1, 7]: 120 ± 2.3% | activity at 1 µM [1, 8]: 118 ± 1% | activity at 1 µM [1, 9]: 131 ± 0.7% | activity at 1 µM [1, 10]: 143 ± 17.8% | effect on cycle length (in words) ([1]; both FM and MM monolayers, concentration not given): concentration-dependent increase | activity at 0.03 µM [2, 11]: 94 ± 15.9% | activity at 0.03 µM [2, 12]: 104 ± 2.1% | activity at 0.1 µM [2, 11]: 85 ± 10.4% | activity at 0.1 µM [2, 12]: 103 ± 2% | activity at 0.3 µM [2, 11]: 102 ± 21.3% | activity at 0.3 µM [2, 12]: 108 ± 2.1% | activity at 1 µM [2, 11]: 109 ± 13.8% | activity at 1 µM [2, 12]: 107 ± 3.7% | activity at 0.03 µM [2, 13]: 86 ± 6.4% | activity at 0.03 µM [2, 14]: 98 ± 1.5% | activity at 0.1 µM [2, 13]: 135 ± 12.9% | activity at 0.1 µM [2, 14]: 102 ± 1.8% | activity at 0.3 µM [2, 13]: 118 ± 12.9% | activity at 0.3 µM [2, 14]: 111 ± 2.1% | activity at 1 µM [2, 13]: 114 ± 18.4% | activity at 1 µM [2, 14]: 118 ± 1.5%
